Assay results taken from patent publication US20040180862A1, “Compositions and methods for inhibiting bone resorption” (priority 2001, published 2004).
“Also recorded” adds a separate entry of the source. Read-outs that look alike come from different tables or passages of the source.

How the values were obtained:
[1] = system: Ch1.Es esophageal fibroblasts; assay: Activation of pro-apoptotic kinases (in-gel kinase assay, phospho-specific immunoblotting); type: cell-based; details: 300 μM, 24 hours
Method: Cell lysates were analyzed using an in-gel kinase assay (top) or by immuno-blotting with anti-phospho-specific antibodies recognizing active MAP kinases (Erk1 and 2), p38, or Jun N-terminal kinase (Jnk).

[2] = system: Ch1.Es esophageal fibroblasts; assay: Apoptosis in Ch1.Es cells (cell rounding and detachment from the dish); type: cell-based; details: for induction of apoptosis: bisphosphonate 300 μM, 24 hours; for suppression of ALN-induced apoptosis in absence of lipoprotein / suppression of RIS-induced apoptosis in absence of lipoprotein: FIG. 3: LPDS, Zara-A 10 μM; for suppression of ALN-induced apoptosis in absence of lipoprotein: ALN 300 μM 24 hours; for suppression of RIS-induced apoptosis in absence of lipoprotein: RIS 300 μM 24 hours
Method: Apoptosis is observed as cell rounding and detachment from the dish.
Ch1.Es cells were grown for 24 hours in either fetal bovine serum (FBS) (top panels) or lipoprotein-deficient […] (LPDS) in the absence (middle) or presence (bottom) of Zara-A (10 μM). […] (300 μM). Phenotypes were scored as in FIG. 2. The suppression of apoptosis is near complete after inclusion of Zara-A.

[3] = system: Ch1.Es esophageal fibroblasts; assay: Protein isoprenylation in Ch1.Es fibroblasts (immunoblot with anti-hDNAJ and anti-Rap1A markers); type: cell-based
Method: (§1) Cells were treated for 24 hours and protein lysates were analyzed for suppression of protein isoprenylation. Markers included either anti-hDNAJ, a farnesylated protein that migrates more slowly when farnesylation is absent (two bands observed) or anti-Rap1A, which we have shown previously to bind preferentially to Rap1A if isoprenylation is blocked (presence of a band indicates absence of protein geranylgeranylation) (See Reszka, A. A., Halasy-Nagy, J. and Rodan, G. A. Molecular Pharmacology 59:193-202, 2001).
(A) Cells pretreated for 24 hours with nothing or the squalene synthase inhibitor, zaragozic Acid A (Zara-A) at 3 μM (three lanes indicated).
as §1, with “geranylgeranylation. See FIG. 1.” for “geranylgeranylation) (See Reszka, A. A., Halasy-Nagy, J. and Rodan, G. A. Molecular Pharmacology 59:193-202, 2001).”
(A) Cells pretreated for 24 hours with nothing or the squalene synthase inhibitor, Zaragozic Acid A (Zara-A) at 3 μM (three lanes indicated).

skin [4] = assay: Skin irritation after subcutaneous injection, histology (hematoxylin and eosin, affected area); type: in vivo, Rats; details: 5 days
Method: Skin was harvested after necropsy, fixed with formalin, thin-sectioned and stained with hematoxylin and eosin. Area was determined by measuring the thickness and length of each affected area and is represented vs. the H2O control.

skin [5] = details: subcutaneous, 5 days; for effect of coadministered Zara-A on ALN-induced skin irritation / thickening: ALN 0.5 mg/kg with Zara-A 3 μg/kg; for effect of coadministered Zara-A on ALN-induced skin irritation / thickening / effect of coadministered Zara-A on RIS-induced skin irritation / thickening: P≦0.01; for effect of coadministered Zara-A on RIS-induced skin irritation / thickening: RIS 0.5 mg/kg with Zara-A 3 μg/kg
[6] = ALN 300 μM, 24 hours, absence of Zara-A
[7] = listed as squalene synthase inhibitor
[8] = Zara-A 0.1-10 μM pretreated 24 hours, then ALN 300 μM 24 hours

## NCCCC(O)(P(=O)(O)O)P(=O)(O)O [ALN, 4-amino-1-hydroxybutylidene-1,1-bisphosphonic acid monosodium trihydrate]
[1]
  activation of pro-apoptotic kinases: activate
[2]
  induction of apoptosis: induced
[3]; [6]
  inhibition of Rap1A geranylgeranylation: strongly inhibits
  inhibition of hDNAJ farnesylation: strongly inhibits

## O=P(O)(O)C(O)(Cc1cccnc1)P(=O)(O)O [RIS, 1-hydroxy-2-(3-pyridinyl)-ethylidene-1,1-bisphosphonic acid]
[1]
  activation of pro-apoptotic kinases: activate
[2]
  induction of apoptosis: induced
Skin [4]; 0.5 mg/kg
  skin irritation: Skin irritation induced
Skin [5]; 0.5 mg/kg, vehicle control 50-100
  volume of affected skin area: 240 mm^3

## C=C(CC[C@]12O[C@H](C(=O)O)[C@@](O)(C(=O)O)[C@](C(=O)O)(O1)[C@H](OC(=O)/C=C/[C@@H](C)C[C@@H](C)CC)[C@H]2O)[C@@H](OC(C)=O)[C@H](C)Cc1ccccc1 [Zara-A, zaragozic Acid A]
[2]; FIG. 2: Zara-A 24 hours, then ALN 300 μM 24 hours
  suppression of ALN-induced apoptosis: suppression
[2]
  suppression of ALN-induced apoptosis in absence of lipoprotein: near complete
  suppression of RIS-induced apoptosis in absence of lipoprotein: near complete
[2]; [7]
  suppression of ALN-induced apoptosis in absence of lipoprotein: maximally suppresses
  suppression of RIS-induced apoptosis in absence of lipoprotein: maximally suppresses
Skin [4]; FIG. 6: ALN 0.5 mg/kg with Zara-A 3 μg/kg
  suppression of ALN-induced skin irritation: suppresses
Skin [5]
  effect of coadministered Zara-A on ALN-induced skin irritation / thickening: significantly reduced
  effect of coadministered Zara-A on RIS-induced skin irritation / thickening: significantly reduced
Skin [5]; [7]
  effect of coadministered Zara-A on ALN-induced skin irritation / thickening: suppresses
  effect of coadministered Zara-A on RIS-induced skin irritation / thickening: suppresses
[3]; Zara-A 3 μM pretreated 24 hours, then ALN 300 μM 24 hours
  effect of Zara-A pretreatment on ALN inhibition of Rap1A geranylgeranylation: reduced; also recorded: diminished
[3]; [8]
  effect of Zara-A on capacity of ALN to inhibit Rap1A geranylgeranylation: dose-dependently reduces; also recorded: dose-dependently diminished
  effect of Zara-A on capacity of ALN to inhibit hDNAJ farnesylation: dose-dependently reduces; also recorded: dose-dependently diminished
